The values that follow come from PMC9266460, “KSK-74: Dual Histamine H3 and Sigma-2 Receptor Ligand with Anti-Obesity Potential” (International Journal of Molecular Sciences, 2022).

For series [1], the system named is obese animal after olanzapine treatment. Also noted: method as in PMID 11985350, PMID 22695490. As to conditions: cited from earlier work.
Series [2] deals with rats fed a palatable diet. As to conditions: cited from earlier work; for inhibition of weight gain: model of excessive eating.
Series [3] has as its system obese adults. Also noted: method as in earlier work. The settings on record: cited from earlier work.
Series [4] has as its system mice fed a high-fat diet. Also noted: method as in PMID 15447739. As to conditions: highest dose; cited from earlier work.
On the set-up of series [5]: method as in PMID 15447739. The settings on record: cited from earlier work.
The target of series [6] is sigma-2 receptor. More on the design: method as in PMID 34908391. The settings on record: Figure 1; read-out: σ2R Ki; cited from earlier work.
The target in series [7] is sigma-1 receptor. Also noted: method as in PMID 34908391. As to conditions: Figure 1; read-out: σ1R Ki; cited from earlier work.
The target in series [8] is T1, H3R (Homo sapiens, UniProt Q9Y5N1).
T1 construct: the Aequoscreen line co-expresses apoaequorin
T1 sequence (Q9Y5N1 whole entry): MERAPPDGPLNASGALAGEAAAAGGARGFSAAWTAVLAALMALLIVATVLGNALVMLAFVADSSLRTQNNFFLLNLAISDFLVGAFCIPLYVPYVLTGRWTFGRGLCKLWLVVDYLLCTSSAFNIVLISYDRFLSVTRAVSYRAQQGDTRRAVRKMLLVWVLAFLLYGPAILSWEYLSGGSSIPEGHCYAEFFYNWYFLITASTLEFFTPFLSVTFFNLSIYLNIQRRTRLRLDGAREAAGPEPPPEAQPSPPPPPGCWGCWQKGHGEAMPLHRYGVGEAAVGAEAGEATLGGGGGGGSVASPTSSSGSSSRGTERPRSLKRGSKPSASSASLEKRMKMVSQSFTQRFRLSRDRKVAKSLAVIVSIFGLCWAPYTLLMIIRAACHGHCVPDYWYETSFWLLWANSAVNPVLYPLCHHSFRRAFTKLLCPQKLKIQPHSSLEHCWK
Description: Affinity at the H3R (literature values). In kind it is binding. As to conditions: H3R Ki relative to sigma-2 Ki.

Series [9] has as its system induced obesity in mice. Also noted: method as in PMID 29802412. As to conditions: i.p. 10 mg/kg b.w. for 14 days; cited from earlier work.
Series [10] concerns rats fed a palatable diet. The series is described as follows: Model of excessive eating: body weight, calorie intake, fat pads. In kind it is in vivo, female Wistar rats. As to the method:
Experiments were performed on female Wistar rats with an initial body weight of 140–160 g. The animals were housed in plastic cages (2 rats per cage) at a constant room temperature of 22 ± 2 °C, with a 12:12 h light/dark cycle. Water and food were available ad libitum. The randomly established experimental groups consisted of 6 rats for pharmacological studies and 3 rats for pharmacokinetic studies. All experiments were conducted in accordance with the Guide to the Care and Use of Experimental Animals, and were approved by the Jagiellonian University in Krakow Local Ethics Committee for Experiments on Animals (Permission No: 185/2017, 220/2019 and 223A/2019).
Female rats were randomly divided into several groups (n = 6) and studied for 4 weeks. The groups were as follows: standard diet + vehicle, palatable diet + vehicle, palatable diet + KSK-60 (1 mg/kg), palatable diet + KSK-60 (10 mg/kg), palatable diet + KSK-74 (1 mg/kg), palatable diet + KSK-74 (10 mg/kg), palatable diet + phentermine (7 mg/kg).
The studies for the 1 mg/kg b.w. and 10 mg/kg b.w. doses were performed at different times, so the parameters studied were compared to the respective control groups.
Rats fed a palatable diet had access to a diet consisting of milk chocolate with nuts, cheese, salted peanuts, and 7% condensed milk, and simultaneously to a standard feed (Labofeed B, Morawski Manufacturer Feed, Poland) for 4 weeks. The water was available ad libitum. Animals had access to palatable products, but also to the standard feed. Most importantly, feeding was not in any way forced, as in other models where animals were fed only a high-fat diet, or temporarily deprived of food (binge eating models). In the case of our model, rats decided themselves when, what, and how much to eat. The weight was evaluated daily. Calorie intake was evaluated three times a week. A palatable diet contained 100 g of peanuts—612 kcal; 100 mL of condensed milk—131 kcal; 100 g of milk chocolate—529 kcal; and 100 g of cheese—325 kcal. The standard diet contained 100 g of feed—280 kcal. Standard diet (fats 8%, carbohydrates 67%, proteins 25%) contained 100 g feed—280 kcal.
The palatable control group (palatable diet + vehicle) received vehicle (1% Tween 80 i.p., daily, for 4 weeks), while palatable test groups were injected i.p. with KSK-60 (1 mg or 10 mg/kg i.p, daily, for 4 weeks), KSK-74 (1 mg/kg or 10 mg/kg i.p, daily, for 4 weeks), or phentermine (7 mg/kg i.p., daily, for 4 weeks), respectively.
On the 31st day, 20 min after i.p. administration of heparin (5000 units/rat) and thiopental (70 mg/kg b.w.), animals were sacrificed, and plasma as well as peritoneal fat pads were collected (food was stopped for 6 h prior to organ, tissue, and plasma collection) for further study.

The subject of series [11] is rats fed a palatable diet. The series is described as follows: Plasma triglyceride and corticosterone levels in the model of excessive eating. The series is classed as in vivo, female Wistar rats. The settings on record: KSK 10 mg/kg, phentermine 7 mg/kg. On the procedure: Blood was collected from the left carotid artery and then centrifuged at 600× g (15 min, 4 °C) to obtain plasma.
To determine plasma triglyceride levels, standard enzymatic and spectrophotometric tests (Cat. No 1-053-A150, Biomaxima S.A., Lublin, Poland) were used. The ELISA Kit (Item No. 501320, Cayman Chemical, Ann Arbor, MI, USA) was used to determine corticosterone levels in plasma.

Series [12] concerns adipose tissue. Description: Histological examination of adipose tissue (Masson's trichrome). In kind it is in vivo, female Wistar rats. As to conditions: palatable diet. As to the method:
Adipose tissue samples were prepared for histology using Masson’s trichrome stain (Merck) by fixation in 4% formaldehyde, dehydration in graded alcohol, and embedded in paraffin. The tissue samples were then sectioned using a microtome of 5 μm thickness. Six random fields from each section were analyzed in a blinded manner with an Olympus BX41 light microscope (Olympus, Tokyo, Japan) at magnifications of ×20, ×40 and ×100, and digital images were captured with an Olympus UC90 color camera. The quantitation of the number of adipocytes was performed in eight fields/slide with ×100 objective using an image analysis system: CellSensDimension (Olympus, Tokyo, Japan). The numerical density of the adipocytes was obtained by counting the total number of adipocytes per high-power field ([…]), and then this number was converted to 0.1 mm^2. According to stereometric rules, adipocytes tangent to the left and top edges of the image field were not counted. A semi-quantitative scale was used to assess the inflammatory response in adipose tissue. The following were evaluated on a subjective scale: inflammatory cell infiltration between adipocytes (0—normal, 1—few cells, 2—local clusters, and 3—extensive infiltrates), perivascular infiltration of immune cells (0—normal, 1—few cells, and 2—ring of inflammatory cells), widening of the septum (0—normal and 1—widening), and capillary congestion (0—normal and 1—congestion). A sum calculated from independently assessed values was calculated for each animal as an index of inflammation.

The subject of series [13] is peritoneal adipose tissue. Description: Leptin, resistin, IL-6 and MCP-1 levels in adipose tissue (ELISA). In kind it is in vivo, female Wistar rats. The settings on record: KSK 10 mg/kg i.p., phentermine 7 mg/kg. On the procedure: The frozen peritoneal adipose tissue was weighed, and homogenates were prepared by homogenizing 1 g of tissue in 4 mL of 0.1 M phosphate buffer, pH 7.4, using the IKA-ULTRA-TURRAX T8 homogenizer. The adipose tissue homogenates were then used for biochemical assays.
To determine the levels of leptin, resistin, IL-6, and MCP-1 in adipose tissue, the standard ELISA Kit (Cat. No E0561Ra, Cat. No E0211Ra, Cat. No E0135Ra, Cat. No E0193Ra, Bioassay Technology Laboratory, Shanghai, China) was used. To determine the levels of protein, a standard spectrophotometric test (Cat. No 1-008-B210, Biomaxima S.A. Lublin, Poland) was used.

Each structure is given as a SMILES string.

For the compound `CNCCc1ccccn1` [Betahistine, reference compound], the body weight entry in series [1] is “induced significant weight loss”. For the same compound, in [2] (rat model of excessive eating), the “high-density lipoprotein (HDL) levels, long-term administration” value is given as “increases high-density lipoprotein (HDL) levels” and the “weight gain, long-term administration” value is “slows weight gain”. Moreover, the “reduction of body weight and waist circumference compared with Orlistat” value in [3] is reported as “did not show significant differences”.
`CN(C)[C@@H]1CCN(CCCOc2ccc(-c3ccc(C#N)cc3)cc2)C1` [Compound A-331440]: the body weight result in series [4] is given as “induced weight loss comparable to mice fed a low-fat diet”. Also, in series [5], the “reason for exclusion from clinical trials” value was “genotoxicity”.
Consider `CC(=O)c1ccc(OCCCCCCN2CCN(c3ccncc3)CC2)cc1` [KSK-59], for which the Ki is 151 nM in [6] and 37.8 nM in [7]. In series [2], the “inhibition of weight gain” value was “high efficacy in inhibiting weight gain”.
With `CC(=O)c1ccc(OCCCCCCCCN2CCN(c3ccncc3)CC2)cc1` [KSK-73], in series [8], the “affinity ratio H3/sigma-2 receptors” value came out at 0.68. For the same compound, the Ki is 59.7 nM in [6] and 408 nM in series [7]. The “inhibition of weight gain” value in [2] is “high efficacy in inhibiting weight gain”.
On to `Clc1ccc(CCCOCCCN2CCCCC2)cc1` [Pitolisant], for which, in series [9], the “body weight and metabolic disturbances” value was “positive influence on body weight, glucose tolerance, and lipid profile”.
As to `CC(C)(N)Cc1ccccc1` [phentermine, reference compound], the “amount of peritoneal fat pads vs palatable diet + vehicle” value in series [10] (KSK 10 mg/kg, phentermine 7 mg/kg, end of experiment) is recorded as “fewer peritoneal fat pads”. In addition, in series [10] (i.p. 28 days, KSK 10 mg/kg b.w., phentermine 7 mg/kg b.w.), the “calorie intake vs control group fed palatable feed” value is “did not significantly influence the amount of calories consumed”. Moreover, the “body weight gain vs palatable diet + vehicle” value in [10] (i.p. daily 4 weeks, KSK-60/KSK-74 10 mg/kg b.w., phentermine 7 mg/kg) is on record as “gained less weight”. Besides, in series [11], the “plasma triglyceride levels vs palatable diet + vehicle” value is “lower plasma triglyceride levels”. In addition, in [12] (7 mg/kg), the “capillary congestion and crown-like structures in adipose tissue” value is “marked capillary congestion and frequent appearance of crown-like structures”. Also, the “inflammatory infiltrates in adipose tissue (histological description)” value in series [12] (KSK 10 mg/kg, phentermine 7 mg/kg) is “slightly less inflammatory infiltrates”. For the same compound, the “number of adipocytes per 0.1 mm^2 of cross-sectional area” value in [12] (KSK 10 mg/kg, phentermine 7 mg/kg, means ± SD, n = 6) was “more similar to the results of the palatable diet + vehicle group”. For the same compound, the “inflammatory index of the adipose tissue” value in [12] (KSK 10 mg/kg, phentermine 7 mg/kg, standard diet + vehicle 0.5 ± 0.34) is 4.16 ± 0.48. In series [12] (n = 6 per group), the “number of rats, Capillary Congestion grade 1-Congestion” value is on record as 6; the “number of rats, Inflammatory Cell Infiltration grade 1-Few Cells” value was 4; the “number of rats, Inflammatory Cell Infiltration grade 2-Local Clusters” value was 2; the “number of rats, Perivascular Infiltration grade 0-Normal” value is reported as 1. Moreover, in series [12] (n = 6 per group), the “number of rats, Perivascular Infiltration grade 1-Few Cells” value worked out at 4; the “number of rats, Perivascular Infiltration grade 2-Ring of Cells” value is listed as 1; the “number of rats, Widening of the Septum grade 0-Normal” value was 1; the “number of rats, Widening of the Septum grade 1-Widening” value is on record as 5. In addition, the “resistin levels in adipose tissue vs palatable diet + vehicle” value in series [13] is listed as “did not influence”. The “leptin levels in adipose tissue” value in [13] (vs palatable diet + vehicle unless worded otherwise) is reported as “did not influence”.
